Assay results from patent US6451734B1, “Substituted 3-benzylpyrazoles and their use as herbicides” (BASF Aktiengesellschaft, priority 1996, dated 2002).

Assays:
Type in all cases: in vivo
[1] = effect on the plasma glucose and insulin level in diabetes mice; settings: homocygotic diabetes mice, not fed for one night; by pharyngeal tube in 0.25% hydroxyethylcellulose; blood collected 2 and 4 hours after treatment
From the text: The animals which were used in the experiments described below received, in addition to sufficient water, a standard feed (“Rat and Mouse Breeder and Grower Diet” supplied by Special Diets Services Ltd., UK). Effect of the active compounds according to the invention on the plasma glucose and insulin level The laboratory animals used were homocygotic diabetes mice (40—60 g, supplied by Harlan UK) which were initially not fed for one night and then separated into different groups. The active compounds were administered as a solution or suspension in 0.25% strength aqueous hydroxyethylcellulose (CELLOSIZE supplied by UCC) using a pharyngeal tube, namely at 5 ml/kg of body weight. 2 and 4 hours after the treatment, approximately 50 μl each of blood were collected from the tip of the tail in capillary tubes for the collection of blood containing lithium heparin (supplied by Sarstedt, “Microvette CB300LH”). Plasma samples (5 μl) were immediately tested for their glucose content. A further 10 μl were stored in an Eppendorf tube at (−70)° C. until the plasma glucose and insulin content were determined.

[2] = determination of glucose elimination via urine in CD1-mice
Protocol: The animals which were used in the experiments described below received, in addition to sufficient water, a standard feed (“Rat and Mouse Breeder and Grower Diet” supplied by Special Diets Services Ltd., UK). Determination of Glucose Elimination via Urine In this experiment, 4 groups of 5 CD1-mice each (20—25 g, supplied by Harlan, UK) were transferred into metabolism cages and initially acclimatized for 24 hours. By pharyngeal tube, animals were then administered 100 mg/kg of body weight of the active compound IIIc.1, dissolved or suspended in 0.25% strength aqueous hydroxyethylcellulose (CELLOSIZE supplied by UCC). For comparison, 0.25% strength aqueous Cellosize without active compound was administered to the other 10 mice. The urine was subsequently collected for 24 hours and its total volume was measured. In each case […] of urine were examined for their glucose content.

Abutilon theophrasti = experiment: greenhouse experiment, post-emergence treatment (herbicidal activity); settings: Abutilon theophrasti (velvet leaf), 0.125 kg/ha of a.s.
From the text: (§1) The herbicidal activity of the substituted 3-benzylpyrazoles I was demostrated by the following greenhouse experiments: The culture containers used were plastic flowerpots containing loamy soil with approximately 3.0% of humus as the substrate. The seeds of the test plants were sown separately for each species. For the post-emergence treatment, the test plants were first grown to a plant height of 3 to 15 cm, depending on the plant habit, and only then treated with the active ingredients which had been suspended or emulsified in water. The test plants for this purpose were either sown directly and grown in the same containers, or they were first grown separately as seedlings and transplanted into the test containers a few days prior to treatment. The rate of application for the post-emergence treatment was 0.125 kg/ha of a.s. (active substance). Depending on the species, the plants were kept at 10-25° C. or 20-35° C. The test period extended over 2 to 4 weeks. During this time, the plants were tended, and their response to the individual treatments was evaluated. Evaluation was carried out using a scale from 0 to 100. 100 means no emergence of the plants, or complete destruction of at least the aerial parts, and 0 means no damage, or normal course of growth. The plants used in the greenhouse experiments belonged to the following species: [table]

Amaranthus retroflexus = experiment: as above; settings: Amaranthus retroflexus (redroot pigweed), 0.125 kg/ha of a.s.
From the text: as §1

Setaria viridis = experiment: as above; settings: Setaria viridis (green foxtail), 0.125 kg/ha of a.s.
From the text: as §1

Solanum nigrum = experiment: as above; settings: Solanum nigrum (black nightshade), 0.125 kg/ha of a.s.
From the text: as §1

[3] = 10 CD1-mice, 100 mg/kg of body weight by pharyngeal tube, urine collected for 24 hours

Row | Structure (SMILES) | plasma insulin level [1] | glucose concentration of the urine [2, 3] | total elimination of glucose [2, 3] | increase of the elimination of glucose (via urine) ([2]; CD1-mice, 100 mg/kg by pharyngeal tube, 24 hours, versus Cellosize without active compound) | herbicidal activity (Abutilon theophrasti) | herbicidal activity (Amaranthus retroflexus) | herbicidal activity (Setaria viridis) | herbicidal activity (Solanum nigrum)
1 | Cn1c(=O)cc(Cc2cccc(Cl)c2Cl)n1C(F)F [IIIc.1, 5-(2,3-Dichlorobenzyl)-1-difluoromethyl-1,2-dihydro-2-methyl-3H-pyrazol-3-one] | substantially unchanged | 17.62 mmol/L | 70.48 µmol | 52% | – | – | – | –
2 | Cn1nc(Cc2cccc(Cl)c2Cl)c(Cl)c1OC(F)F [Ia.1, 4-Chloro-3-(2,3-dichlorobenzyl)-5-difluoromethoxy-1-methyl-1H-pyrazole] | substantially unchanged | – | – | – | very good | very good | very good | very good
3 | Cn1nc(Cc2cccc(Cl)c2Cl)cc1OC(F)F [Ic.1, 3-(2,3-Dichlorobenzyl)-5-difluoromethoxy-1-methyl-1H-pyrazole] | substantially unchanged | – | – | – | – | – | – | –
